Measurements published in patent US20070112176A1, “Lipid membrane structure containing anti-mt-mmp monoclonal antibody” (DAIICHI PHARMACEUTICAL CO., LTD., priority 2003, published 2007).

Test system: HT1080 cells
Assay: Cytostatic test of liposomes with various antibody binding ratios, Test Example 6
Format: cell-based, human
Conditions: control group; free DOX 100 μg/mL, used as start value
Procedure: According to the method described in Test Example 2-1), the cytostatic ability of various antibody-binding liposomes was evaluated by using the HT1080 cells. The cells were adhered to a 96-well plate, then added with anti-MT1-MMP monoclonal antibody (clone number: 222-1D8)-binding and anticancer agent-encapsulating liposomes (Fab′(222-1D8)-DOX-LP), and cultured for 1 hour. After the culture, the cells were washed, added with a fresh medium, and further cultured for 24 hours. After the cells were washed and cultured for 24 hours, a cell counting assay was performed, and A450 serving as an index of viable cell count was plotted. Means±S.D. (n=4) was indicated for each group. As control, only the medium (control), anticancer agent-encapsulating liposomes not bound with antibody (DOX-LP (Preparation Example (11)) or the anticancer agent alone (free DOX) was added instead of Fab′(222-1D8)-DOX-LP. A group in which only the medium was similarly treated without adding the cells was used as a blank. It was confirmed by multiple times of experiments that the start value used in the calculation of inhibitory rate and the like in Test Example 2 was not substantially different from the absorbance obtained with 100 μg/mL of DOX alone (free DOX) used as the sample, and therefore the value obtained for the 100 μg/mL free DOX group was used as the start value. […]

## COc1cccc2c1C(=O)c1c(O)c3c(c(O)c1C2=O)C[C@@](O)(C(=O)CO)C[C@@H]3O[C@H]1C[C@H](N)[C@H](O)[C@H](C)O1 [Free DOX, doxorubicin]
  Cytostatic ratio for HT1080 cells: 100%
